For this assay, the system named is human endothelial cell-derived tubule formation. The assay is described as follows: In vitro angiogenesis assay, endothelial cell-derived tubule formation in co-culture with human fibroblasts. To be noted: tubule formation at day 11, CD31 immunostaining, with and without VEGF; FIG. 4. The assay is classed as cell-based. The method, then:
An in vitro angiogenesis assay based on human endothelial cell-derived tubule formation (TCS Biologicals) in a co-culture with human fibroblasts was used to investigate the effects of selected peptides on angiogenesis. The peptides, together with VEGF and other factors were added at the start of the experiment and at each medium change at days 4, 7 and 9. At day 11, the cultures were fixed with 70% ethanol for 30 min at room temperature and subsequently subjected to immunostaining for the endothelial cell adhesion molecule CD31. Fixed cells were incubated with the primary antibody (mouse anti-human CD31) for 1 h at 37° C., washed 3 times in blocking buffer (PBS containing 1% BSA), and then incubated with the secondary antibody (goat anti-mouse IgG conjugated to alkaline phosphatase) for 1 h at 37° C. After 3 washes in distilled water, the cells were finally incubated with the substrate solution for 10 min at 37° C. Immunostaining was observed and photographed using an inverted Zeiss microscope (Axiovert CFL25) fitted with a ×4 objective lens. […] A, VEGF released from untreated control during 11 days, measured by specific immunoassay; B, untreated control; C, VEGF; D, peptide 121–132; E, VEGF in the presence of peptide 121–132; F, peptide 125–136; and G, VEGF in the presence of peptide 125–136.

Take “RKRKKSR [SEQ ID NO:21, 7-mer truncated derivative of the 12-mer V125–136 protein]”: the “inhibition of angiogenesis (Chalkley count), potency compared with the 12-mer” value was “inhibits angiogenesis with similar potency to the 12-mer”.

Values taken from US7223835B2, “VEGF peptides and their use for inhibiting angiogenesis” (Ark Therapeutics Ltd., priority 2000, dated 2007).
